In data set [1] the test system is H1975. Particulars: read-out: H1975 Cell IC50; cited from earlier work.
The test system of data set [2] is hepatocytes. The data set is described as follows: Metabolite identification in hepatocytes, human. The data set is classed as in vitro ADME. Particulars: 10 μM, 240 min, formation of AZ5104 via de-alkylation on the indole ring. The method, then:
Suspended hepatocytes in enough incubation medium to yield ˜1.5×10^6 cells/mL. Pipetted 199 μL of viable hepatocytes or the boiled hepatocytes into each wells of a 96-well non-coated plate. Placed the plate in the incubator on an orbital shaker to allow the hepatocytes to warm for 10 minutes. Pipetted 1 μL of the 2 mM test compound(s) into respective wells of the 96-well non-coated plate to start the reaction with final concentration of 10 μM. Returned the plate to the incubator and placed on an orbital shaker. Incubated at 37° C., 5% CO2 and 90-95% relative humidity with shaking at 500 rpm on the shaker for 240 min. After incubation, transferred media from each well to a tube containing 400 μL cold methanol, washed the well with 200 μL cold methanol and then transferred the media to the corresponding tube. Centrifuged tubes for 10 minutes at 16,000 g. Aliquots of 200 μL of the supernatants were mixed with 200 μL of pure water and used for LC-MS/MS analysis. UHPLC-MS/MS analysis was conducted using a Dionex UltiMate 3000 UHPLC system (Thermo Fisher Scientific, USA) and Thermo Scientific Q Exactive (Thermo Fisher Scientific, USA) fitted with a HESI probe. […]

For data set [3] the following is noted: observed with AZD9291 treatment; cited from earlier work.

Structures are written as SMILES.

As usually defined, the IC50 is the concentration that inhibits the measured activity by half. Regarding `C=CC(=O)Nc1cc(Nc2nccc(-c3c[nH]c4ccccc34)n2)c(OC)cc1N(C)CCN(C)C` [AZ5104], in data set [1], the IC50 is 2 nM.

With `C=CC(=O)Nc1cc(Nc2nccc(-c3cn(C)c4ccccc34)n2)c(OC)cc1N(C)CCN(C)C` [AZD9291], in data set [2], the “Metabolite AZ5104, Human” value is recorded as “Observed”. Also, in data set [1], the IC50 was 15 nM. In addition, in data set [3], the “clinical side effect: diarrhea” value is listed as 42% and the “clinical side effect: rash” value is listed as 41%.

These data come from US12049460B2, “EGFR inhibitor compounds” (Recurium IP Holdings, LLC, priority 2016, dated 2024).
